“Also recorded” adds a separate entry of the source.
Assays:
monoclonal antibody DD-3 = experiment: Competition ELISA with monoclonal antibody DD-3; type: binding, BALB/c mice; conditions: competitor vs monoclonal antibody DD-3; plate coated with A-triCDD-RSA
Protocol: (§1) In this case the hybridomas were then screened for their ability to distinguish A-triCDD-BSA and A-triCDD-RSA from BSA and RSA. On the basis of this initial screen about 25 stable, antibody-producing colonies were isolated, subcloned, and frozen. The remaining clones were again screened for their abilities to recognize free TCDD in suspension. Experimentally, on the order of 10-100 nanograms of TCDD in hexane was dried, 0.5 ml of saline with BSA (1 mg/ml) was added and sonificated for 2 hrs. […] Identical procedures were followed for other dioxin isomers. A dilution series in microtiter plate wells was then made with the suspended TCDD, antibody adde, and the competition ELISA completed. Competition ELISA test procedures are discussed in detail in the following reference: Butt, W. R. (1984) "Practical Immunoassay: The State of the Art", Marcel Dekker, Inc., N.Y., N.Y.
(§2) A large part of the success that we have had in characterizing the binding specificities of our monoclonal antibodies comes from having developed a reliable competition ELISA protocol. Our preferred assay starts from stock solutions at 10 ppm in hexane of the various compounds listed in Table I. 10 μl of hexane solution is aliquoted into a small vial, evaporated under a stream of nitrogen gas, and 500 μl of a 1 mg/ml solution of BSA in phosphate buffered saline with 0.1% BSA is added. The vial is capped and placed in an ultrasonic cleaning waterbath for two hours. Two hours of sonification gives a more reproducible assay than does an hour. During the sonification, the hexane appears to evaporate completely, and one is left with an aqueous solution containing the dioxin. Microtiter plates coated with A-triCDD-RSA are blocked with a three percent solution of ovalbumin and a two-fold dilution series of sonificated dioxin-BSA is then made, covering the range 100 ppb-0.1 ppb. In each well of the plate 100 μl of the sonificated dioxin-BSA solution is mixed with n equal volume of antibody. The antibody partitions between the dioxin adsorbed to the BSA, and the A-tri-CDD-RSA on the plate.
(§3) A-TriCDD-RSA was adsorbed onto the surface of the wells of a microtiter plate. The various competitors listed were suspended in saline containing bovine serum albumin (BSA). These solutions were made by sonificating 10 μl of dioxin solution in hexane with 500 μl of saline-BSA. A dilution series of these dioxin-BSA solutions was then made covering the range of 100-0.2 ppb, and placed in the microtiter plate wells. An equal volume of DD-1 monoclonal antibody was then added, and allowed to react for 1 hour. Tne antibody binds either to the A-TriCDD-RSA on the plate or the dioxin in solution. After the hour, the solution phase is removed, the plate washed, and it is reincubated for an hour with peroxidase-conjugated goat-anti-mouse-immunoglobulins. A second washing is then done, and substrate (ABTS) added to the peroxidase. The enzyme-antibody conjugate and substrate function as a "developer", allowing the visualization of the DD-1 bound to the A-triCDD-RSA on the plate. Results are then expressed as a fraction of the response in wells with no competitor. […] At about 20 ppb of 2,3,7,8-TCDD the relative ELISA response is half of control, meaning that half the DD-1 antibody bound to the solution phase dioxin and half bound to the A-triCDD-RSA on the plate. For 1,2,3,7(8)-TCDD, 50% inhibition occurs at about 4 ppb, indicating the DD-1 prefers 1,2,3,7(8)-TCDD to 2,3,7,8-TCDD.
(§4) The FIGURE and Table II show representative competition data using several chlorinated compounds as competitors. From such data, one can determine the concentration required to inhibit antibody binding by 50% (I50). Table II lists the I50 for all compounds tested with the antibodies. In reporting these values, factors of two are about the limit of significance. […] The binding specificities of these antibodies are highly desirable, since they prefer the most toxic of the dioxin and dibenzofuran isomers.

monoclonal antibody DD-1 = experiment: Competition ELISA with monoclonal antibody DD-1; type: binding, Biozzi mice; conditions: for I50 (inhibits antibody binding by 50%): competitor vs monoclonal antibody DD-1, plate coated with A-triCDD-RSA
Protocol: as §1, §2, §3, §4

[1] = tested on: monoclonal antibodies DD-1, DD-3, DD-4, DD-5 and DD-6; experiment: Competition ELISA, statements for all antibodies together; type: binding, BALB/c and Biozzi mice
Protocol: as §1, §2, §3, §4

monoclonal antibody DD-6 = experiment: Competition ELISA with monoclonal antibody DD-6; type: binding, Biozzi mice; conditions: competitor vs monoclonal antibody DD-6; plate coated with A-triCDD-RSA
Protocol: as §1, §2, §3, §4

monoclonal antibody DD-4 = experiment: Competition ELISA with monoclonal antibody DD-4; type: binding, BALB/c mice; conditions: competitor vs monoclonal antibody DD-4; plate coated with A-triCDD-RSA
Protocol: as §1, §2, §3, §4

monoclonal antibody DD-5 = experiment: Competition ELISA with monoclonal antibody DD-5; type: binding, Biozzi mice; conditions: competitor vs monoclonal antibody DD-5; plate coated with A-triCDD-RSA
Protocol: as §1, §2, §3, §4

| Compound | I50 (inhibits antibody binding by 50%) (monoclonal antibody DD-3) | I50 (inhibits antibody binding by 50%) (monoclonal antibody DD-1) | reactivity of all antibodies with competitor ([1]; up to the highest concentration tested (100 ppb)) | I50 (inhibits antibody binding by 50%) (monoclonal antibody DD-6) | I50 (inhibits antibody binding by 50%) (monoclonal antibody DD-4) | I50 (inhibits antibody binding by 50%) (monoclonal antibody DD-5) | affinity / recognition by all antibodies [1] | concentration at which 50% inhibition occurs (relative ELISA response half of control) (monoclonal antibody DD-1; FIGURE, DD-1, competitor in saline-BSA, dilution series 100-0.2 ppb) |
| --- | --- | --- | --- | --- | --- | --- | --- | --- |
| Clc1ccc2oc3c(Cl)c(Cl)c(Cl)c(Cl)c3c2c1Cl [1,2,3,4,8,9-Hexa-CDBF] | > 200 ng | > 200 ng | either do not react or react only marginally | > 150 ng | > 200 ng | > 10 ng |  |  |
| Clc1cc(Cl)c2c(c1)Oc1cc(Cl)c(Cl)cc1O2 [1,3,7,8-TCDD] | 0.15 ng | 0.2 ng |  | 1 ng | > 2 ng |  | highest affinity |  |
| Clc1cc2oc3cc(Cl)c(Cl)cc3c2cc1Cl [2,3,7,8-TCDBF] | 0.9 ng | 0.65 ng |  | 0.5 ng | 5 ng | 1 ng | slightly less affinity |  |
| Clc1cc2c(cc1Cl)Oc1cc(Cl)c(Cl)cc1O2 [2,3,7,8-TCDD, 2,3,7,8-tetrachlorodibenzo-p-dioxin] | 3 ng | 1 ng |  | 6 ng | 5 ng | 0.5 ng | slightly less affinity; also recorded: recognize | about 20 ppb |
| Clc1ccc(-c2ccc(Cl)c(Cl)c2)cc1Cl [3,3',4,4'-TCBP] | > 200 ng | > 200 ng |  | 100 ng | > 200 ng | > 10 ng |  |  |
| Oc1cc(Cl)c(Cl)cc1O [4,5-Dichlorocatechol] | > 2000 ng | 2000 ng |  | > 2000 ng | > 2000 ng | > 2000 ng |  |  |
| ClC1=C(Cl)C2(Cl)C3C4C=CC(C4)C3C1(Cl)C2(Cl)Cl (stereo not shown) [Aldrin] | > 2000 ng | > 2000 ng |  | > 2000 ng | > 2000 ng | > 2000 ng |  |  |
| ClC1C(Cl)C(Cl)C(Cl)C(Cl)C1Cl (stereo not shown) [BHC] | > 2000 ng | 300 ng |  | > 2000 ng | > 2000 ng | > 2000 ng |  |  |
| ClC1=C(Cl)C2(Cl)C3C(Cl)C(Cl)CC3C1(Cl)C2(Cl)Cl (stereo not shown) [Chlordane] | > 2000 ng | > 2000 ng |  | > 2000 ng | > 2000 ng | > 2000 ng |  |  |

Source: US4798807A, “Monoclonal antibodies and method for detecting dioxins and dibenzofurans” (priority 1986, dated 1989)
